In patent publication US11136317B2, “NADPH oxidase 4 inhibitors” (ACTELION PHARMACEUTICALS LTD, priority 2015, dated 2021):

Molecular target: T1, human NOX4 (Homo sapiens, UniProt Q9NPH5)
T1 construct: The full-length human NOX4 (NM_016931.3) transcript was cloned; expressed in transfected cells
T1 sequence (Q9NPH5 1-578): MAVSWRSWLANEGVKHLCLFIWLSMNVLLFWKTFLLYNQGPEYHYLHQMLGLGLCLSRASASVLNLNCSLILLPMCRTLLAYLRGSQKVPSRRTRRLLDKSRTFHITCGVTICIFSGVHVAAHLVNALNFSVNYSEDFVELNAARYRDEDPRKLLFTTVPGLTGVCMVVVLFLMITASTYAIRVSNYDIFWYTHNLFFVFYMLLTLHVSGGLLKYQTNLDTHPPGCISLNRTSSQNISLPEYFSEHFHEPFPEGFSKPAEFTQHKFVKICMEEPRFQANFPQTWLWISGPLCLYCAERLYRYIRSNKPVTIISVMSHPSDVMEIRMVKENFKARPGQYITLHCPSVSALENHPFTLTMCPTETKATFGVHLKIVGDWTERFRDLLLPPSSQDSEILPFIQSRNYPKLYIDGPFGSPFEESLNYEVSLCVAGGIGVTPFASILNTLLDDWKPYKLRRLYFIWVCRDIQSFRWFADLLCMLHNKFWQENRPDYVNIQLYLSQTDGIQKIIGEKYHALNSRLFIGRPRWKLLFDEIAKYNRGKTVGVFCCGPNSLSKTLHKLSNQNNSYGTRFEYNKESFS
T1 sequence (P13498 1-195 partner): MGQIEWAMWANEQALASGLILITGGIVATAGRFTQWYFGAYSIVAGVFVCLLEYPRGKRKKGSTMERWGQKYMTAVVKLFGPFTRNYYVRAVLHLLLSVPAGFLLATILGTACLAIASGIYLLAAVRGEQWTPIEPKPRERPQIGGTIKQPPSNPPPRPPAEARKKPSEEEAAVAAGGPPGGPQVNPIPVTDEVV
Experiment: Amplex Red activity assay (cellular H2O2 formation in hNOX4 T-REx-293 cells)
Assay type: cell-based
Details: tet-induced 24 h, extracellular H2O2 by Amplex Red, 60 min 25° C., geometric mean if determined several times
Procedure, shortened: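 Tet-induced (1 μg/mL, 24 h) HEK293 T-REx cells stably expressing full-length human NOX4, 20 000 cells/well, exposed to compounds (10 concentrations, 50 μM to 100 nM; 1.25% DMSO) for 60 min at 25°C. Extracellular H2O2 detected by Amplex Red resorufin fluorescence (ex 550/em 600 nm) versus vehicle; IC50 calculated.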

Row | Compound | IC50
1 | CCN(CC)c1nc2cc(NC(=O)c3ccc4c(c3)OCCO4)ccc2o1 [Example 175, 2,3-Dihydro-benzo[1,4]dioxine-6-carboxylic acid (2-diethylamino-benzooxazol-5-yl)-amide] | 1.35 µM
2 | O=C(Nc1ccc2oc(N(C3CC3)C3COC3)nc2c1)c1ccc2c(c1)OCCO2 [Example 176, 2,3-Dihydro-benzo[1,4]dioxine-6-carboxylic acid [2-(cyclopropyl-oxetan-3-yl-amino)-benzooxazol-5-yl]-amide] | 2.97 µM
3 | CN1CCOc2ccc(C(=O)Nc3ccc4oc(N5CC(O)C5)nc4c3)cc21 [Example 177, 4-Methyl-3,4-dihydro-2H-benzo[1,4]oxazine-6-carboxylic acid [2-(3-hydroxy-azetidin-1-yl)-benzooxazol-5-yl]-amide] | 6.87 µM
4 | CN1CCOc2ccc(C(=O)Nc3ccc4oc(N5CC(F)(F)C5)nc4c3)cc21 [Example 178, 4-Methyl-3,4-dihydro-2H-benzo[1,4]oxazine-6-carboxylic acid [2-(3,3-difluoro-azetidin-1-yl)-benzooxazol-5-yl]-amide] | 21.8 µM
5 | CN1CCOc2ccc(C(=O)Nc3ccc4oc(N5CCC56CCC6)nc4c3)cc21 [Example 179, 4-Methyl-3,4-dihydro-2H-benzo[1,4]oxazine-6-carboxylic acid [2-(1-aza-spiro[3.3]hept-1-yl)-benzooxazol-5-yl]-amide] | 1.74 µM
6 | CN1CCOc2ccc(C(=O)Nc3ccc4oc(N5CCC56COC6)nc4c3)cc21 [Example 180, 4-Methyl-3,4-dihydro-2H-benzo[1,4]oxazine-6-carboxylic acid [2-(6-oxa-1-aza-spiro[3.3]hept-1-yl)-benzooxazol-5-yl]-amide] | 1.77 µM
7 | CN1CCOc2ccc(C(=O)Nc3ccc4oc(N5CCC56CCOC6)nc4c3)cc21 (centres unmarked) [Example 181, 4-Methyl-3,4-dihydro-2H-benzo[1,4]oxazine-6-carboxylic acid [2-(6-oxa-1-aza-spiro[3.4]oct-1-yl)-benzooxazol-5-yl]-amide] | 2.44 µM
8 | CN1CCOc2ccc(C(=O)Nc3ccc4oc(N5CCC56CCOCC6)nc4c3)cc21 [Example 182, 4-Methyl-3,4-dihydro-2H-benzo[1,4]oxazine-6-carboxylic acid [2-(7-oxa-1-aza-spiro[3.5]non-1-yl)-benzooxazol-5-yl]-amide] | 3.39 µM
9 | CN1CCOc2ccc(C(=O)Nc3ccc4oc(N5CCCC5)nc4c3)cc21 [Example 183, 4-Methyl-3,4-dihydro-2H-benzo[1,4]oxazine-6-carboxylic acid (2-pyrrolidin-1-yl-benzooxazol-5-yl)-amide] | 8.7 µM
10 | CN1CCOc2ccc(C(=O)Nc3ccc4oc(N5CCCC56COC6)nc4c3)cc21 [Example 184, 4-Methyl-3,4-dihydro-2H-benzo[1,4]oxazine-6-carboxylic acid [2-(2-oxa-5-aza-spiro[3.4]oct-5-yl)-benzooxazol-5-yl]-amide] | 1.89 µM
11 | CN1CCOc2ccc(C(=O)Nc3ccc4oc(N5CCCCC5)nc4c3)cc21 [Example 185, 4-Methyl-3,4-dihydro-2H-benzo[1,4]oxazine-6-carboxylic acid (2-piperidin-1-yl-benzooxazol-5-yl)-amide] | 3.86 µM
12 | CN1CCOc2ccc(C(=O)Nc3ccc4oc(N5CCC(O)CC5)nc4c3)cc21 [Example 186, 4-Methyl-3,4-dihydro-2H-benzo[1,4]oxazine-6-carboxylic acid [2-(4-hydroxy-piperidin-1-yl)-benzooxazol-5-yl]-amide] | 3.45 µM
13 | CN1CCOc2ccc(C(=O)Nc3ccc4oc(N5CCC(F)(F)CC5)nc4c3)cc21 [Example 187, 4-Methyl-3,4-dihydro-2H-benzo[1,4]oxazine-6-carboxylic acid [2-(4,4-difluoro-piperidin-1-yl)-benzooxazol-5-yl]-amide] | 3.39 µM
14 | CN1CCOc2ccc(C(=O)Nc3ccc4oc(N5CCCC(F)(F)C5)nc4c3)cc21 [Example 188, 4-Methyl-3,4-dihydro-2H-benzo[1,4]oxazine-6-carboxylic acid [2-(3,3-difluoro-piperidin-1-yl)-benzooxazol-5-yl]-amide] | 3.64 µM
15 | CN1CCOc2ccc(C(=O)Nc3ccc4oc(N5CCCC6(COC6)C5)nc4c3)cc21 [Example 189, 4-Methyl-3,4-dihydro-2H-benzo[1,4]oxazine-6-carboxylic acid [2-(2-oxa-6-aza-spiro[3.5]non-6-yl)-benzooxazol-5-yl]-amide] | 2.19 µM
16 | CN1CCOc2ccc(C(=O)Nc3ccc4oc(N5CCC6(CC5)COC6)nc4c3)cc21 [Example 190, 4-Methyl-3,4-dihydro-2H-benzo[1,4]oxazine-6-carboxylic acid [2-(2-oxa-7-aza-spiro[3.5]non-7-yl)-benzooxazol-5-yl]-amide] | 3.58 µM
17 | COC1CCN(c2nc3cc(NC(=O)c4ccc5c(c4)N(C)CCO5)ccc3o2)CC1 [Example 191, 4-Methyl-3,4-dihydro-2H-benzo[1,4]oxazine-6-carboxylic acid [2-(4-methoxy-piperidin-1-yl)-benzooxazol-5-yl]-amide] | 4.38 µM
18 | CN1CCOc2ccc(C(=O)Nc3ccc4oc(N5CCOCC5)nc4c3)cc21 [Example 192, 4-Methyl-3,4-dihydro-2H-benzo[1,4]oxazine-6-carboxylic acid (2-morpholin-4-yl-benzooxazol-5-yl)-amide] | 4.32 µM
19 | CN1CCN(c2nc3cc(NC(=O)c4ccc5c(c4)N(C)CCO5)ccc3o2)CC1 [Example 193, 4-Methyl-3,4-dihydro-2H-benzo[1,4]oxazine-6-carboxylic acid [2-(4-methyl-piperazin-1-yl)-benzooxazol-5-yl]-amide] | 4.04 µM
20 | CCN(CC)c1nc2cc(NC(=O)c3ccc4c(c3)N(C)CCO4)ccc2o1 [Example 194, 4-Methyl-3,4-dihydro-2H-benzo[1,4]oxazine-6-carboxylic acid (2-diethylamino-benzooxazol-5-yl)-amide] | 3.58 µM
21 | CN1CCOc2ccc(C(=O)Nc3ccc4oc(N(C5CC5)C5COC5)nc4c3)cc21 [Example 195, 4-Methyl-3,4-dihydro-2H-benzo[1,4]oxazine-6-carboxylic acid [2-(cyclopropyl-oxetan-3-yl-amino)-benzooxazol-5-yl]-amide] | 4.44 µM
22 | O=C(Nc1ccc2c(c1)CCO2)c1ccc2sc(N3CCCCC3)nc2c1 [Example 196, 2-Piperidin-1-yl-benzothiazole-5-carboxylic acid (2,3-dihydro-benzofuran-5-yl)-amide] | 2.56 µM
23 | O=C(Nc1ccc2c(c1)CCO2)c1ccc2sc(N3CCC34COC4)nc2c1 [Example 197, 2-(6-Oxa-1-aza-spiro[3.3]hept-1-yl)-benzothiazole-5-carboxylic acid (2,3-dihydro-benzofuran-5-yl)-amide] | 0.728 µM
24 | O=C(Nc1ccc2c(c1)CCO2)c1ccc2sc(N3CCC(F)(F)CC3)nc2c1 [Example 198, 2-(4,4-Difluoro-piperidin-1-yl)-benzothiazole-5-carboxylic acid (2,3-dihydro-benzofuran-5-yl)-amide] | 45.2 µM
25 | O=C(Nc1ccc2c(c1)CCO2)c1ccc2sc(N3CCS(=O)(=O)CC3)nc2c1 [Example 199, 2-(1,1-Dioxo-thiomorpholin-4-yl)-benzothiazole-5-carboxylic acid (2,3-dihydro-benzofuran-5-yl)-amide] | 23.9 µM
26 | COC1CCN(c2nc3cc(C(=O)Nc4ccc5c(c4)CCO5)ccc3s2)CC1 [Example 200, 2-(4-Methoxy-piperidin-1-yl)-benzothiazole-5-carboxylic acid (2,3-dihydro-benzofuran-5-yl)-amide] | 2.75 µM
